Literature values as cited in US12570633B2, “Preparation method for CDK4/6 inhibitor” (CHIA TAI TIANQING PHARMACEUTICAL GROUP CO., LTD., priority 2020, dated 2026).

Tests used:
breast cancer = settings: background statement referring to WO2016141881
CDK4/6 = settings: background statement referring to WO2016141881; read-out: IC50 value against CDK4/6

**Q.** With `CC(C)c1c2cc(-c3nc(Nc4ccc(N5CCNCC5)cn4)ncc3F)ccc2nn1C` [compound of formula (I)] as the compound, how does the “tumor inhibitory activity against breast cancer” value (breast cancer) read?
**A.** The value was “good tumor inhibitory activity”.

**Q.** And the IC50 (CDK4/6)?
**A.** Its IC50 is < 1 nM.
